# Measured values from patent US5315038A, “Microorganism for breaking down moenomycins, a process for the breakdown, and the use of the breakdown products” (Hoechst Aktiengesellschaft, priority 1988, dated 1994).
# Columns and labels:
# Moenomycinase [1] = assay: Moenomycinase activity (activation / inhibition); assay type: biochemical, Bacillus spec. DSM 4675
# Text: The dissolved enzyme was further purified by chromatography. For anion exchange chromatography, the enzyme was bound to a column of DEAE-52 (Whatman) or MonoQHR-5-5 (Pharmacia) and then eluted with 0.2-1.0M NaCl. Presence of moenomycinase in the fractions was monitored by measuring the conversion of moenomycin A to MC, as described in Example 3, below. Further purification was achieved using hydrophobic chromatography. The enzyme was bound to phenylsepharose (Pharmacia), and was then eluted with 40% methanol. The enzyme was concentrated by ultrafiltration using an ultrafiltration membrane (Millipore) which retains molecules with molecular weights ≥10,000 Dalton.
# transglycosylase [2] = target: T1, transglycosylase (Escherichia coli, UniProt P02919); assay: Another study: inhibition of the transglycosylase reaction, in vitro peptidoglycan synthesis; assay type: biochemical, E. coli K 12; conditions: Final Concentration 12.5 μg/l
# Description: (§1) The inhibition of the polymerization of the peptidoglycan-sugar chains by the cleavage products was carried out by the assay described by Izaki (J. Biol. Chem. 243, 3180-3192, 1968) using lipid intermediates from the cell membrane of E. coli K 12.
# Results of another study of the inhibition of the transglycosylase reaction by moenomycin cleavage products in vitro is shown in the following Table. The values in the Table show the inhibition of peptidoglycan-sugar chain synthesis in vitro. Decahydro MB is an analog of MB that has no double bonds in the alkyl chain.
# E. coli DC2 = assay: Agar dilution test, Mueller-Hinton agar (minimum inhibitory concentration); assay type: cell-based; conditions: Escherichia coli
# Description: (§2) An agar dilution test with Mueller-Hinton agar was carried out to determine the antibacterial activities (Antibiotics in Laboratory Medicine, V. Lorian, Ed., Baltimore 1986, pages 1-10).
# Staph. aureus 503 = assay: as above; assay type: cell-based; conditions: Staphylococcus aureus
# Description: as §2
# Str. pyogenes 77 = assay: as above; assay type: cell-based; conditions: Streptococcus pyogenes
# Description: as §2
# transglycosylase [3] = target: T1, transglycosylase; assay: Transglycosylase assay (Izaki), inhibition of polymerization of the peptidoglycan-sugar chains; assay type: biochemical, E. coli K 12; conditions: moenomycin A 20 μg/ml; concentration of MB not stated separately
# Description: as §1
# Moenomycinase [4] = assay: Moenomycinase kinetics (Km for substrate); assay type: biochemical, Bacillus spec. DSM 4675; conditions: moenomycin A as substrate
# [5] = tested on: biosynthesis of the peptidoglycan framework of the bacterial cell wall; conditions: cited from earlier work
# T1 sequence (P02919 whole entry): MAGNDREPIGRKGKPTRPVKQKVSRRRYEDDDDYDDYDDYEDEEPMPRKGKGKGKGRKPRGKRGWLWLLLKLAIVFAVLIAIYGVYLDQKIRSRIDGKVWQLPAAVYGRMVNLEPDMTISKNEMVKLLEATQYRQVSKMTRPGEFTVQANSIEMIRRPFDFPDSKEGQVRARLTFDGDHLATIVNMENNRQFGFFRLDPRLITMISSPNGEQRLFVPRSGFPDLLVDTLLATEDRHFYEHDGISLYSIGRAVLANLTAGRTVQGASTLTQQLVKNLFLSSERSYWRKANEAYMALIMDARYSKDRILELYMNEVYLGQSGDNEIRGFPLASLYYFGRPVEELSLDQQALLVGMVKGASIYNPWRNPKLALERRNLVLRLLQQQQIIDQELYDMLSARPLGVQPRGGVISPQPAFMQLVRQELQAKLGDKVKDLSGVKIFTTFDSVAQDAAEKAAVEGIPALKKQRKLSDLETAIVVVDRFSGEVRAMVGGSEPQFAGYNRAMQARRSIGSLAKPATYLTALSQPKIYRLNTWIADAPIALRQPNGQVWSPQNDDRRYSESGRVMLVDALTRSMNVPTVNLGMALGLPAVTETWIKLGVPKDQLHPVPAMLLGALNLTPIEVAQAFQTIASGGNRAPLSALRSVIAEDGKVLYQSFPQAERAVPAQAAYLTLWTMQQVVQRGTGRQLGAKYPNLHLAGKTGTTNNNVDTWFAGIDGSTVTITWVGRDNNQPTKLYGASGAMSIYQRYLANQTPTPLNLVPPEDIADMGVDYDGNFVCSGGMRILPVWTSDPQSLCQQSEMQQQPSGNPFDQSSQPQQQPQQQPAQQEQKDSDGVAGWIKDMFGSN
compound,measurement,setting,value
"CC(=O)OCC1=C(C(=O)O)N2C(=O)[C@@H](N)[C@H]2SC1 [7-aminocephalosporin acid (7-ACA), 7-aminocephalosporin acid]",inhibition of moenomycinase,Moenomycinase [1],inhibited
CC(=O)OCC1=C(C(=O)O)N2C(=O)[C@@H](NC(=O)CCC[C@@H](N)C(=O)O)[C@H]2SC1 [Cephalosporin C],inhibition of moenomycinase,Moenomycinase [1],inhibited
CC(C)CCCC(C)CCC(C)CCC(C)(C)CCCCC(C)CCO[C@H](COP(=O)(O)O)C(=O)O (stereo partly shown) [Decahydro MB],% Inhibition of In Vitro Peptidoglycan Synthesis,transglycosylase [2],28%
O=C(O)CN(CCN(CC(=O)O)CC(=O)O)CC(=O)O [EDTA],inhibition of moenomycinase,Moenomycinase [1],inhibited
C=C(CC=C(C)CCC=C(C)C)CCC(C)(C)C=CCCC(C)=CCO[C@H](CO)C(=O)O [MA],MIC,E. coli DC2,> 100 µg/mL
same,MIC,Staph. aureus 503,> 100 µg/mL
same,MIC,Str. pyogenes 77,> 100 µg/mL
same,% Inhibition of In Vitro Peptidoglycan Synthesis,transglycosylase [2],67%
C=C(CC=C(C)CCC=C(C)C)CCC(C)(C)C=CCCC(C)=CCO[C@H](COP(=O)(O)O)C(=O)O [MB],MIC,E. coli DC2,> 100 µg/mL
same,MIC,Staph. aureus 503,25 µg/mL
same,MIC,Str. pyogenes 77,3.12 µg/mL
same,inhibition of the transglycosylase reaction,transglycosylase [3],32.9%
same,% Inhibition of In Vitro Peptidoglycan Synthesis,transglycosylase [2],94%
C=C(CC=C(C)CCC=C(C)C)CCC(C)(C)C=CCCC(C)=CCOC(COP(=O)(O)OC1OC(C(N)=O)C(C)(O)C(OC(N)=O)C1OC1OC(COC2OC(CO)C(O)C(O)C2O)C(OC2OC(C)C(OC3OC(C(=O)NC4=C(O)CCC4=O)C(O)C(O)C3O)C(O)C2NC(C)=O)C(O)C1NC(C)=O)C(=O)O (stereo not shown) [moenomycin A],Km,Moenomycinase [4],4 to 10 mM
same,inhibition of the biosynthesis of the peptidoglycan framework of the bacterial cell wall,[5],inhibits
formalin,inhibition of moenomycinase,Moenomycinase [1],inhibited
